Where two headings read alike, the source gives them in different places.
Columns and labels:
[1] = tested on: LNCaP cells
Description: Normalized gene expression data was ranked using the Signal2Noise metric and GSEA was performed against 1000 random gene set permutations.

[2] = tested on: LNCaP cells; conditions: 0.1 nM DHT to 100 nM DHT
[3] = tested on: androgen receptor (AR); experiment: MMTV-Luc reporter assay in CWR-R1 early and CWR-R1 late cells; assay type: cell-based, human; conditions: 1 nM mibolerone, 24 hours; CWR-R1 early vs CWR-R1 late cells
[4] = tested on: castration-resistant prostate cancer patients; conditions: Phase III trials; cited from earlier work
[5] = tested on: CWR-R1 cells; conditions: castrate conditions; 10 μM bicalutamide or 1 μM enzalutamide
[6] = tested on: 22Rv1 cells; experiment: Growth of 22Rv1 cells under castrate conditions (crystal violet staining); assay type: cell-based, human; conditions: CSS; 10 μM bicalutamide or 1 μM enzalutamide

C[C@]12CCC(=O)C[C@@H]1CC[C@@H]1[C@@H]2CC[C@]2(C)[C@@H](O)CC[C@@H]12 [DHT, dihydrotestosterone]
enrichment of the "full-length AR" signature (GSEA) ([1]; 1 nM DHT and 100 nM DHT datasets): positive enrichment | enrichment of the "AR-V-specific" signature (GSEA) ([1]; 1 nM DHT dataset (GSE26483)): positive enrichment | enrichment of the "AR-V-specific" signature (GSEA) ([1]; 100 nM DHT dataset (GSE7868)): strong negative enrichment | PSA expression [2]: increased concomitant with increasing androgen concentration | expression of M-phase genes UBE2C, CDCA5, ZWINT, and CCNA2 [2]: biphasic response

C[C@@H]1CC2=CC(=O)CC[C@@H]2[C@H]2CC[C@@]3(C)[C@@H](CC[C@]3(C)O)[C@@H]21 [mibolerone]
AR transactivation (MMTV-Luc) in response to androgen [3]: higher in CWR-R1 early cells than CWR-R1 late cells

CNC(=O)c1ccc(N2C(=S)N(c3ccc(C#N)c(C(F)(F)F)c3)C(=O)C2(C)C)cc1F [enzalutamide]
increase of overall survival [4]: 4.8 months | androgen-independent growth of deletion-enriched CWR-R1 cells [5]: insensitive | growth of 22Rv1 cells under castrate conditions [6]: unaffected

Reference: patent publication US20140206748A1, “COMPOSITIONS AND METHODS RELATED TO PROSTATE CANCER” (Regents of the University of Minnesota, priority 2013, published 2014)
